Measurements taken from patent US11752188B2, “Compositions and methods for nutritional supplements” (DailyColors Health Inc., priority 2020, dated 2023).

Experiments:
recombinant human CD73 = molecular target: T1, recombinant human CD73 (Homo sapiens, UniProt P21589); test: CD73 in vitro enzymatic assay (colorimetric 630 nm); type: biochemical; conditions: TABLE 91
T1 construct: purchased BPS Bioscience 71184 (enzyme); kit #72055
T1 sequence (P21589 27-549): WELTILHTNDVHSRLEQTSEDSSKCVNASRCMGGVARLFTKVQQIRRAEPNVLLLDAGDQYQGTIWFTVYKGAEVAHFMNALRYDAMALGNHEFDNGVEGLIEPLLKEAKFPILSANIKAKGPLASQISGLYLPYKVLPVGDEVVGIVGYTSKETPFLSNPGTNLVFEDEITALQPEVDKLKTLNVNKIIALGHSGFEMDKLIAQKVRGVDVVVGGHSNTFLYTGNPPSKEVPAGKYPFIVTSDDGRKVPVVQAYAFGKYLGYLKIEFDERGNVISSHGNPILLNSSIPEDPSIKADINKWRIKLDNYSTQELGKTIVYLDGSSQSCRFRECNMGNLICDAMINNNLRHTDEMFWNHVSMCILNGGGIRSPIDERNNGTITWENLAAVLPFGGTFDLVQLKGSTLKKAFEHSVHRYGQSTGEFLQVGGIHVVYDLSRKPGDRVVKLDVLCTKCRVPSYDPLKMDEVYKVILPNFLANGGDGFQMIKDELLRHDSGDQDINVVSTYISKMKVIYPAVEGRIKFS
Source text: Here, D5 is the Yellow Blend, D9 is the Purple Blend, D21 is the Green Blend, D13 is the Red Blend, and D31 is CBD. As before, the red blend included Apple Extract, Pomegranate Extract, Tomato Powder, Beet; the green blend included Olive Extract, Rosemary Extract, Green Coffee Bean Extract, Kale; the orange/yellow blend included Onion Extract, Ginger Extract, Grapefruit Extract, Carrot; and the purple/blue blend included Grape, Blueberry Extract, Currant, Elderberry.
Assay Conditions: In general, all assays points were done by following the CD39 and CD73 Inhibitor Screening Assay Kit protocol (BPS Bioscience, #79278 and 72055, respectively). The CD73 enzymatic reactions were conducted in duplicate at room temperature for 30 minutes in a 50 μl mixture containing assay buffer, […], CD73 enzymes, and the test compound. Test compounds were preincubated with the enzyme for 30 minutes. Reactions were started by addition of the substrate. The 50 μl reactions were carried out in a 96-well transparent plate. After enzymatic reactions, 100 μl of Colorimetric Detection Reagent was added to the reaction mix. After a 15 minutes incubation, absorbance was measured using a Tecan plate reader at 630 nm.
Data Analysis: Enzyme activity assays were performed in duplicates at each concentration. The Absorbance intensity data were analyzed and compared. In the absence of the compound, the intensity in each data set was defined as 100% (Ce) activity. In the absence of enzyme, the intensity in each data set was defined as 0% (C0) activity.

recombinant human CD39 = molecular target: T2, recombinant human CD39 (Homo sapiens, UniProt P49961); test: CD39 in vitro enzymatic assay (ATP, colorimetric 630 nm); type: biochemical; conditions: TABLE 81;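 also: test compound preincubated 30 min with enzyme, then 30 min reaction with ATP at room temperature, absorbance after detection reagent, 100% activity without compound, 0% without enzyme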
T2 construct: purchased BPS Bioscience 71284 (enzyme); kit #79278
T2 sequence (P49961 1-510): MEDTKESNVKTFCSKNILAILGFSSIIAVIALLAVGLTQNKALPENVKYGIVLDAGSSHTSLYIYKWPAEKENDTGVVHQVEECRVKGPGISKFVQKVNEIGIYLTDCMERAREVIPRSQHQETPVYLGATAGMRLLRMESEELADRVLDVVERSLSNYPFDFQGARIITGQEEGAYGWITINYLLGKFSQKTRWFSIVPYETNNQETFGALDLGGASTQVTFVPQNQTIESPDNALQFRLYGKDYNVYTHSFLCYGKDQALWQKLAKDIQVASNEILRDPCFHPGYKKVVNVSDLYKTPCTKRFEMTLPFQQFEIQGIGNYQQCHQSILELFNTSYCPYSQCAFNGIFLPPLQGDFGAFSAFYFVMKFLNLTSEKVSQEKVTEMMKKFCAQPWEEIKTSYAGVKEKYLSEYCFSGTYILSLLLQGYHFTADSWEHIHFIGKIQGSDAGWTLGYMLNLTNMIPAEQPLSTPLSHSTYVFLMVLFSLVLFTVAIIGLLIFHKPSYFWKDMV
Protocol: The CD39 enzymatic reactions were conducted in duplicate at room temperature for 30 minutes in a 50 μl mixture containing assay buffer, ATP, CD39 enzymes, and the test compound. Test compounds were preincubated with the enzyme for 30 minutes. Reactions were started by addition of the substrate. The 50 μl reactions were carried out in a 96-well transparent plate. After enzymatic reactions, 100 μl of Colorimetric Detection Reagent was added to the reaction mix. After a 15 minutes incubation, absorbance was measured using a Tecan plate reader at 630 nm.

C=C(C)[C@@H]1CCC(C)=C[C@H]1c1c(O)cc(CCCCC)cc1O [D31, CBD]
Activity (%) Rep. 1 (recombinant human CD73; 0.0004%): 104% | Activity (%) Rep. 2 (recombinant human CD73; 0.0004%): 101% | Inhibition (%) (recombinant human CD73; 0.0004%): 0% | Net absorbance Rep. 1 (recombinant human CD73; 0.0004%): 0.35 | Net absorbance Rep. 2 (recombinant human CD73; 0.0004%): 0.34 | Activity (%) Rep. 1 (recombinant human CD73; 0.002%): 103% | Activity (%) Rep. 2 (recombinant human CD73; 0.002%): 100% | Inhibition (%) (recombinant human CD73; 0.002%): 0% | Net absorbance Rep. 1 (recombinant human CD73; 0.002%): 0.35 | Net absorbance Rep. 2 (recombinant human CD73; 0.002%): 0.34 | Activity (%) Rep. 1 (recombinant human CD73; 0.01%): 106% | Activity (%) Rep. 2 (recombinant human CD73; 0.01%): 98% | Inhibition (%) (recombinant human CD73; 0.01%): 0% | Net absorbance Rep. 1 (recombinant human CD73; 0.01%): 0.35 | Net absorbance Rep. 2 (recombinant human CD73; 0.01%): 0.33 | Activity (%) Rep. 1 (recombinant human CD39; 0.0004%): 93% | Activity (%) Rep. 2 (recombinant human CD39; 0.0004%): 91% | Inhibition (%) (recombinant human CD39; 0.0004%): 8% | Net absorbance Rep. 1 (recombinant human CD39; 0.0004%): 0.50 | Net absorbance Rep. 2 (recombinant human CD39; 0.0004%): 0.49 | Activity (%) Rep. 1 (recombinant human CD39; 0.002%): 90% | Activity (%) Rep. 2 (recombinant human CD39; 0.002%): 92% | Inhibition (%) (recombinant human CD39; 0.002%): 9% | Net absorbance Rep. 1 (recombinant human CD39; 0.002%): 0.48 | Net absorbance Rep. 2 (recombinant human CD39; 0.002%): 0.49 | Activity (%) Rep. 1 (recombinant human CD39; 0.01%): 96% | Activity (%) Rep. 2 (recombinant human CD39; 0.01%): 103% | Inhibition (%) (recombinant human CD39; 0.01%): 1% | Net absorbance Rep. 1 (recombinant human CD39; 0.01%): 0.52 | Net absorbance Rep. 2 (recombinant human CD39; 0.01%): 0.55
